According to patent publication US6344484B1, “Tyrosine alkoxyguanidines as integrin inhibitors” (3-Dimensional Pharmaceuticals, Inc., priority 1999, dated 2002):
Where a name gives a salt, the structure may show the parent alone. Read-outs that look alike come from different tables or passages of the source.

Columns and labels:
human αvβ3 = target: T1, human αvβ3 (Homo sapiens, UniProt P05106+P06756); assay: αvβ3-vitronectin assay (ELISA, inhibition of αvβ3-vitronectin interaction); assay type: binding
T1 construct: purchased Chemicon CC10118
T1 sequence (P06756 31-889 limits assumed): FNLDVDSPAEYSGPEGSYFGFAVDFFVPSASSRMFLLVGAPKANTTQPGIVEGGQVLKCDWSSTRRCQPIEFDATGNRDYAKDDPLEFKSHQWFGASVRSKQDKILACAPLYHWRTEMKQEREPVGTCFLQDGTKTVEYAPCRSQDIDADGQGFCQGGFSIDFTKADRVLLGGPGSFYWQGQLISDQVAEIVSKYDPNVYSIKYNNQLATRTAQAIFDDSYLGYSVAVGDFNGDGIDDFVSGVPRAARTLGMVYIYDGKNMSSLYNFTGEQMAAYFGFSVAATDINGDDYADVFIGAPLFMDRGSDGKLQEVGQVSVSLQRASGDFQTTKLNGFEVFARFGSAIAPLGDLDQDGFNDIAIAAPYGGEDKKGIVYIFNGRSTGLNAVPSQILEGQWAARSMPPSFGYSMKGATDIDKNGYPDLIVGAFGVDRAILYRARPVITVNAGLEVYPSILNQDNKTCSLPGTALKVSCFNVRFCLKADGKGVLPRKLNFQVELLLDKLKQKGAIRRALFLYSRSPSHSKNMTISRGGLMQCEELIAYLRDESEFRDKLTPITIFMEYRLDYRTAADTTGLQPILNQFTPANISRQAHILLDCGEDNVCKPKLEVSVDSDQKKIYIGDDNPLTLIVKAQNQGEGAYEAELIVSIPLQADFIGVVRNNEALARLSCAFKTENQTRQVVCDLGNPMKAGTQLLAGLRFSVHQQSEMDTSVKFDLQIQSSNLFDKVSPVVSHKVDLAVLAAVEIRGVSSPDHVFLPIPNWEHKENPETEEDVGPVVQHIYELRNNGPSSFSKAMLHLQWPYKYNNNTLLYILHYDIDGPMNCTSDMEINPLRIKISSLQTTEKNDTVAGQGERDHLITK
T1 sequence (P06756 891-1048 partner limits assumed): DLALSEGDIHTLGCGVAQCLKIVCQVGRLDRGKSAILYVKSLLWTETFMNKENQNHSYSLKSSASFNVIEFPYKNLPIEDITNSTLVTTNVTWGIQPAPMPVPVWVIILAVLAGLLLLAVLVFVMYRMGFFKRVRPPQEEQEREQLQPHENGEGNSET
T1 sequence (P05106 27-788): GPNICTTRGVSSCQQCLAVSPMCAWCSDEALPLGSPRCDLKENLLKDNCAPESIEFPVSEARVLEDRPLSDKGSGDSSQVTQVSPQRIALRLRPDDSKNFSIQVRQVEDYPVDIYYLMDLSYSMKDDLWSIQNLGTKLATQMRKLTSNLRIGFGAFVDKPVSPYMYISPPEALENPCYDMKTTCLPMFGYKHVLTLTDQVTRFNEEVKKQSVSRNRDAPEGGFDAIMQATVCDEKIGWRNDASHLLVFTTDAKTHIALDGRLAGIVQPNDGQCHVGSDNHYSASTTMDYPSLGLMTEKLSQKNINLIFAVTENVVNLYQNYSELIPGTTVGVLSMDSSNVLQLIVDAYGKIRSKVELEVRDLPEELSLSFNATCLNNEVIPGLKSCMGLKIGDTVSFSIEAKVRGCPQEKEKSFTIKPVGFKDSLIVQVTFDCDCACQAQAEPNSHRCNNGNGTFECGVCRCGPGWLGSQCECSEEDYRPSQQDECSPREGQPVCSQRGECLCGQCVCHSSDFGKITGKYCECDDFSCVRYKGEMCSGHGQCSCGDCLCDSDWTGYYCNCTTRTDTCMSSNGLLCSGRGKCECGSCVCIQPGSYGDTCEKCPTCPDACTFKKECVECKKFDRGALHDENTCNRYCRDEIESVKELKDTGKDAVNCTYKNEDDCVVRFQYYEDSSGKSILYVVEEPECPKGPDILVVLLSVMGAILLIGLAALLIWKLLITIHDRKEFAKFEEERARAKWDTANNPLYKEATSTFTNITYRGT
Description: The assay was based on the method of Niiya (Niiya, K., et al., Blood 70:475-483 (1987)). Costar 9018 flat-bottom 96-well ELISA plates were coated overnight at 4° C. with 100 μL/well of 0.4 μg/mL human αvβ3 (Chemicon CC10118) in TS buffer (20 mM Tris-HCl pH 7.5, 150 mM NaCl, 1 mM CaCl2, 1 mM MgCl2, 1 mM MnCl2). All subsequent steps were performed at room temperature. Plates were blocked for 2 hr with 200 μL/well of TS buffer containing 1% BSA (TSB buffer), and washed 5 times with 200 μL/well of TS buffer. Controls or test compound (0.44-455 nM) were mixed with 1 μg/mL of human vitronectin (Chemicon CC1019) that had been biotinylated in-house with sulfo-NHS-LC-LC-biotin (Pierce 21338, 20:1 molar ratio), and 100 μL/well of these solutions (in TSB buffer) were incubated for 2 hr. The plate was then washed 5 times with TS buffer, and 100 μL/well of 1 μ/mL NeutrAvidin-horseradish peroxidase conjugate (Pierce 31001) in TSB buffer was incubated for 1 hr. Following a 5-fold TS buffer wash, the plate was developed and results were calculated as described for the fibrinogen-IIbIIIa assay.

human GPIIbIIIa = target: T2, human GPIIbIIIa (Homo sapiens, UniProt P05106+P08514); assay: Fibrinogen-IIb-IIIa assay (ELISA, inhibition of fibrinogen-GPIIbIIIa interaction); assay type: binding; settings: mean of three replicate determinations; FIG. 1
T2 construct: purchased Enzyme Research Laboratories
T2 sequence (P08514 32-887 limits assumed): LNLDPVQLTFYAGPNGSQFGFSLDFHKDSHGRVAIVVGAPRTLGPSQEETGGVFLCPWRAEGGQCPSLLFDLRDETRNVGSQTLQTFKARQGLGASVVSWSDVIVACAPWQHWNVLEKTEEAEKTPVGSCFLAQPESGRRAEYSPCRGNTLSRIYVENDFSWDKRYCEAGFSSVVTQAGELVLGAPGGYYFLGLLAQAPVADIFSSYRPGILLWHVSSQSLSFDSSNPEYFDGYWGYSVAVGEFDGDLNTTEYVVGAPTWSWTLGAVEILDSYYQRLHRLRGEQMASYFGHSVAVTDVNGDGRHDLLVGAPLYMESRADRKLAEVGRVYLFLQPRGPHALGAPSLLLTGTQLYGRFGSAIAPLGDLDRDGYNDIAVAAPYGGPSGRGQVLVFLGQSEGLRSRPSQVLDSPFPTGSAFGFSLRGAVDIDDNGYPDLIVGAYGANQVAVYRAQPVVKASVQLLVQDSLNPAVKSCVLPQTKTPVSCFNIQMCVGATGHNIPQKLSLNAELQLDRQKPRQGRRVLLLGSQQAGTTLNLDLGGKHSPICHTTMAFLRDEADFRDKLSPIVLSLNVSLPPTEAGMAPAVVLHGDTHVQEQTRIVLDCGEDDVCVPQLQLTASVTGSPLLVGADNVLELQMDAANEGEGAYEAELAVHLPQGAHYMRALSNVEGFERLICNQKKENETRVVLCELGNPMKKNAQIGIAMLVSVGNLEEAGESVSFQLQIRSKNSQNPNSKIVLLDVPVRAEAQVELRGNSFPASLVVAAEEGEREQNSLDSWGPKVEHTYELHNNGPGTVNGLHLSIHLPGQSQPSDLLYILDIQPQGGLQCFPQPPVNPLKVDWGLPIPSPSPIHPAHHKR
T2 sequence (P08514 891-1039 partner limits assumed): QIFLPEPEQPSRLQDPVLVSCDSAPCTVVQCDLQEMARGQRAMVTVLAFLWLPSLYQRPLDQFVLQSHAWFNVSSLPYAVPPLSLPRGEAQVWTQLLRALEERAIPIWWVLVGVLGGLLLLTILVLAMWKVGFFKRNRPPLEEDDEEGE
T2 sequence (P05106 27-788): as the sequence (P05106 27-788) above
Description: Fibrinogen-IIb-IIIa assay
The assay is based on the method of Dennis (Dennis, M. S., et al, Proteins 15: 312-321 (1993)). Costar 9018 flat-bottom 96-well ELISA plates were coated overnight at 4° C. with 100 μL/well of 10 μg/mL human fibrinogen (Calbiochem 341578) in 20 mM Tris-HCl pH 7.5, 150 mM NaCl, 2 mM CaCl2, 0.02% NaN3 (TAC buffer), and blocked for 1 hr at 37° C. with 150 μL/well of TAC buffer containing 0.05% Tween 20 and 1% bovine serum albumin (TACTB buffer). After washing 3 times with 200 μL/well of 10 mM Na2HPO4 pH 7.5, 150 mM NaCl, 0.01% Tween 20 (PBST buffer), controls or test compound (0.036-18.2 μM) were mixed with 40 μg/mL human GPIIbIIIa (Enzyme Research Laboratories) in TACTB buffer, and 100 μL/well of these solutions were incubated for 2 hr at 37° C. The plate was then washed 3 times with PBST buffer, and 100 μL/well of a monoclonal anti-GPIIbIIIa antibody in TACTB buffer (1 μg/mL, Enzyme Research Laboratories MabGP2b3a) was incubated at 37° C. for 1 hr. […] The reaction was stopped with 50 μL/well of 2M H2SO4, and the absorbence at 492 nm was recorded. Percent (%) inhibition was calculated from the average of three separate determinations relative to buffer controls (no test compound added), and a four parameter fit (Marquardt, D. W., J. Soc. Indust. Appl. Math. 11:431-441 (1963)) was used to estimate the half maximal inhibition concentration (IC50).

[1] = Table I, read-out: αvβ3 IC50 (nM), inhibition of the αvβ3-vitronectin interaction

Row | SMILES | IC50 (human αvβ3; [1]) | IC50 (human GPIIbIIIa) | IC50 (human αvβ3; mean of three replicate determinations, FIG. 2, read-out: IC50, inhibition of the αvβ3-vitronectin interaction)
1 | CC1(C)C2CCC1(CS(=O)(=O)N[C@@H](Cc1ccc(OCCCONC(=N)N)cc1)C(=O)O)C(=O)C2 (stereo partly drawn) [Example 86, (2S)-2-{[(1S)-10-Camphorsulfonyl]amino}-3-{4-[3-(amidinoaminooxy)propoxy]phenyl}propanoic acid trifluoroacetic acid salt] | 1 nM | – | –
2 | N=C(N)NOCCCOc1ccc(C[C@H](NS(=O)(=O)c2c(Cl)cccc2Cl)C(=O)O)cc1 [Example 46, (2S)-3-{4-[3-(Amidinoaminooxy)propoxy]phenyl}-2-{[(2,6-dichlorophenyl)sulfonyl]amino}propanoic acid trifluoroacetic acid salt] | 2 nM | – | –
3 | Cc1ccc([N+](=O)[O-])cc1S(=O)(=O)N[C@@H](Cc1ccc(OCCCONC(=N)N)cc1)C(=O)O [Example 11, (2S)-3-{4-[3-(Amidinoaminooxy)propoxy]phenyl)}-2-{[(2-methyl-5-nitrophenyl)sulfonyl]amino}propanoic acid trifluoroacetic acid salt] | 2 nM | – | –

Next, values leading:

Row | IC50 (human αvβ3; [1]) | IC50 (human GPIIbIIIa) | IC50 (human αvβ3; mean of three replicate determinations, FIG. 2, read-out: IC50, inhibition of the αvβ3-vitronectin interaction) | SMILES
4 | 6 nM | – | – | Cc1nn(C)c(Cl)c1S(=O)(=O)N[C@@H](Cc1ccc(OCCCONC(=N)N)cc1)C(=O)O [Example 77, (2S)-3-{4-[3-(Amidinoaminooxy)propoxy]phenyl}-2-{[(5-chloro-1,3-dimethylpyrazol-4-yl)sulfonyl]amino}propanoic acid trifluoroacetic acid salt]
5 | – | 780 nM | 28 nM | CCCCS(=O)(=O)N[C@@H](Cc1ccc(OCCCONC(=N)N)cc1)C(=O)O [Example 1, (2S)-3-{4-[3-(amidinoaminooxy)propoxy]phenyl}-2-[(butylsulfonyl)amino]propanoic acid trifluoroacetic acid]
